Data from article PMC9234961 (Journal of Medicinal Chemistry, 2022).
Like-named read-outs stand apart in the source and are kept apart here.

Assays:
kinases (468) [1] = molecular target: kinases (468) (Homo sapiens, UniProt O14920); conditions: IKK-beta (IKBKB); 1000 nM
kinases (468) [2] = molecular target: kinases (468) (Homo sapiens, UniProt O14965); conditions: AURKA; 1000 nM
kinases (468) [3] = molecular target: kinases (468) (Homo sapiens, UniProt O15530); conditions: PDPK1; 1000 nM
kinases (468) [4] = molecular target: kinases (468) (Homo sapiens, UniProt O43283); conditions: LZK (MAP3K13); 1000 nM
kinases (468) [5] = molecular target: kinases (468) (Homo sapiens, UniProt P00519, F317I); conditions: 1000 nM
kinases (468) [6] = molecular target: kinases (468) (Homo sapiens, UniProt P00533, L858R); conditions: EGFR(L858R); 1000 nM
kinases (468) [7] = molecular target: kinases (468) (Homo sapiens, UniProt P04629); conditions: kinase TRKA (Entrez NTRK1); compound concentration 1000 nM
kinases (468) [8] = molecular target: kinases (468) (Homo sapiens, UniProt P0C1S8); conditions: kinase WEE2 (Entrez WEE2); compound concentration 1000 nM
kinases (468) [9] = molecular target: kinases (468) (Homo sapiens, UniProt P19784); conditions: CSNK2A2; 1000 nM
kinases (468) [10] = molecular target: kinases (468) (Homo sapiens, UniProt P20794); conditions: MAK; 1000 nM
kinases (468) [11] = molecular target: kinases (468) (Homo sapiens, UniProt P23443); conditions: kinase S6K1 (Entrez RPS6KB1); compound concentration 1000 nM
kinases (468) [12] = molecular target: kinases (468) (Homo sapiens, UniProt P37023); conditions: ACVRL1; 1000 nM
kinases (468) [13] = molecular target: kinases (468) (Homo sapiens, UniProt P37173); conditions: kinase TGFBR2 (Entrez TGFBR2); compound concentration 1000 nM
kinases (468) [14] = molecular target: kinases (468) (Homo sapiens, UniProt P42680); conditions: kinase TEC (Entrez TEC); compound concentration 1000 nM
kinases (468) [15] = molecular target: kinases (468) (Homo sapiens, UniProt Q13153); conditions: PAK1; 1000 nM
kinases (468) [16] = molecular target: kinases (468) (Homo sapiens, UniProt Q13873); conditions: BMPR2; 1000 nM
kinases (468) [17] = molecular target: kinases (468) (Homo sapiens, UniProt Q15139); conditions: PRKD1; 1000 nM
kinases (468) [18] = molecular target: kinases (468) (Homo sapiens, UniProt Q15375); conditions: EPHA7; 1000 nM
kinases (468) [19] = molecular target: kinases (468) (Homo sapiens, UniProt Q16513); conditions: PKN2; 1000 nM
kinases (468) [20] = molecular target: kinases (468) (Homo sapiens, UniProt Q2M2I8); conditions: AAK1; 1000 nM
kinases (468) [21] = molecular target: kinases (468) (Homo sapiens, UniProt Q5S007); conditions: LRRK2; 1000 nM
kinases (468) [22] = molecular target: kinases (468) (Homo sapiens, UniProt Q6XUX3); conditions: kinase RIPK5 (Entrez DSTYK); compound concentration 1000 nM
kinases (468) [23] = molecular target: kinases (468) (Homo sapiens, UniProt Q86UX6); conditions: kinase YANK3 (Entrez STK32C); compound concentration 1000 nM
kinases (468) [24] = molecular target: kinases (468) (Homo sapiens, UniProt Q8NE63); conditions: HIPK4; 1000 nM
kinases (468) [25] = molecular target: kinases (468) (Homo sapiens, UniProt Q8NEB9); conditions: kinase VPS34 (Entrez PIK3C3); compound concentration 1000 nM
kinases (468) [26] = molecular target: kinases (468) (Homo sapiens, UniProt Q8TDX7); conditions: NEK7; 1000 nM
kinases (468) [27] = molecular target: kinases (468) (Homo sapiens, UniProt Q8WXR4); conditions: MYO3B; 1000 nM
kinases (468) [28] = molecular target: kinases (468) (Homo sapiens, UniProt Q96NX5); conditions: CAMK1G; 1000 nM
kinases (468) [29] = molecular target: kinases (468) (Homo sapiens, UniProt Q9H4A3); conditions: kinase WNK1 (Entrez WNK1); compound concentration 1000 nM
kinases (468) [30] = molecular target: kinases (468) (Homo sapiens, UniProt Q9P289); conditions: MST4; 1000 nM
kinases (468) [31] = molecular target: kinases (468) (Homo sapiens, UniProt Q9UEE5); conditions: DRAK1 (STK17A); 1000 nM
kinases (468) [32] = molecular target: kinases (468) (Homo sapiens, UniProt Q9Y2H1); conditions: NDR2 (STK38L); 1000 nM
kinases (468) [33] = molecular target: kinases (468) (Homo sapiens, UniProt Q9Y2H9); conditions: MAST1; 1000 nM
kinases (468) [34] = molecular target: kinases (468) (Homo sapiens, UniProt Q9Y3S1); conditions: kinase WNK2 (Entrez WNK2); compound concentration 1000 nM

kinases (468) (Homo sapiens, UniProt P00519, F317I), sequence (P00519 whole entry F317I): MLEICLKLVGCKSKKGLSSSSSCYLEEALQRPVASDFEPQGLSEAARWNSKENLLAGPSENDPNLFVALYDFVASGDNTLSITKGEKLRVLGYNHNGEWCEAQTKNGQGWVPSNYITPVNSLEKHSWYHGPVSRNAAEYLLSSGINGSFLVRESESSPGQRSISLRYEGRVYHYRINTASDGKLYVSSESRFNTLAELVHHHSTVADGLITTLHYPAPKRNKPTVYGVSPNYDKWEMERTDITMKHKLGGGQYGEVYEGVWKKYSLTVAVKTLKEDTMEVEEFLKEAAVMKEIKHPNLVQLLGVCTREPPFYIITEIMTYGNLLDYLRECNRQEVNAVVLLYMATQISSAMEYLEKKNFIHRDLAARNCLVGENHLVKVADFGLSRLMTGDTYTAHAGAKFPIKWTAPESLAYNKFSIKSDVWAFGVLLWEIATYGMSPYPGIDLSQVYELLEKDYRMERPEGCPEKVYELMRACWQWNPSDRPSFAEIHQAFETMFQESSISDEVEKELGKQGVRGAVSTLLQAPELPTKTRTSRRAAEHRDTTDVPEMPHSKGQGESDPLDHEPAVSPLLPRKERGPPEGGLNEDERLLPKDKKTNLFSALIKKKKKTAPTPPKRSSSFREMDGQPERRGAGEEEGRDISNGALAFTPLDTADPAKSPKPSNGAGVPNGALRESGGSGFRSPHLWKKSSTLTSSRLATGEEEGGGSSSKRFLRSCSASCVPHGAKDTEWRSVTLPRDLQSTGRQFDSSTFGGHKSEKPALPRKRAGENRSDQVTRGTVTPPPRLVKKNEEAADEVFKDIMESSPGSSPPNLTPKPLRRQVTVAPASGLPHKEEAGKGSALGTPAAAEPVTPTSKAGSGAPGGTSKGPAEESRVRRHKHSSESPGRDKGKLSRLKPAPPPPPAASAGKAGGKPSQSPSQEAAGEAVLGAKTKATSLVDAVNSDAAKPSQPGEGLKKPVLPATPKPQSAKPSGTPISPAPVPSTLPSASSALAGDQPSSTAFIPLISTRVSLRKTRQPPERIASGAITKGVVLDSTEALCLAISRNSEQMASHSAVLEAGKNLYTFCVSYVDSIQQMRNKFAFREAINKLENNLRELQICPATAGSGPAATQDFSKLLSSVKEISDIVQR
kinases (468) (Homo sapiens, UniProt Q8TDX7), sequence (Q8TDX7 whole entry): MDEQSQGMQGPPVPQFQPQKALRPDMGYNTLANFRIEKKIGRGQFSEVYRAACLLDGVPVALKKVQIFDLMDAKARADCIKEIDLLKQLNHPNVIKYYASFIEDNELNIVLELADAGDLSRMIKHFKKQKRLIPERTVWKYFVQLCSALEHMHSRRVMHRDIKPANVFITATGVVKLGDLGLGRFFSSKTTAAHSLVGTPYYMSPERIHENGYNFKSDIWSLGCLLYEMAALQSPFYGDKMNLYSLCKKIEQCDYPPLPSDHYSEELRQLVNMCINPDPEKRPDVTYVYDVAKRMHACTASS
kinases (468) (Homo sapiens, UniProt Q8NEB9), sequence (Q8NEB9 whole entry): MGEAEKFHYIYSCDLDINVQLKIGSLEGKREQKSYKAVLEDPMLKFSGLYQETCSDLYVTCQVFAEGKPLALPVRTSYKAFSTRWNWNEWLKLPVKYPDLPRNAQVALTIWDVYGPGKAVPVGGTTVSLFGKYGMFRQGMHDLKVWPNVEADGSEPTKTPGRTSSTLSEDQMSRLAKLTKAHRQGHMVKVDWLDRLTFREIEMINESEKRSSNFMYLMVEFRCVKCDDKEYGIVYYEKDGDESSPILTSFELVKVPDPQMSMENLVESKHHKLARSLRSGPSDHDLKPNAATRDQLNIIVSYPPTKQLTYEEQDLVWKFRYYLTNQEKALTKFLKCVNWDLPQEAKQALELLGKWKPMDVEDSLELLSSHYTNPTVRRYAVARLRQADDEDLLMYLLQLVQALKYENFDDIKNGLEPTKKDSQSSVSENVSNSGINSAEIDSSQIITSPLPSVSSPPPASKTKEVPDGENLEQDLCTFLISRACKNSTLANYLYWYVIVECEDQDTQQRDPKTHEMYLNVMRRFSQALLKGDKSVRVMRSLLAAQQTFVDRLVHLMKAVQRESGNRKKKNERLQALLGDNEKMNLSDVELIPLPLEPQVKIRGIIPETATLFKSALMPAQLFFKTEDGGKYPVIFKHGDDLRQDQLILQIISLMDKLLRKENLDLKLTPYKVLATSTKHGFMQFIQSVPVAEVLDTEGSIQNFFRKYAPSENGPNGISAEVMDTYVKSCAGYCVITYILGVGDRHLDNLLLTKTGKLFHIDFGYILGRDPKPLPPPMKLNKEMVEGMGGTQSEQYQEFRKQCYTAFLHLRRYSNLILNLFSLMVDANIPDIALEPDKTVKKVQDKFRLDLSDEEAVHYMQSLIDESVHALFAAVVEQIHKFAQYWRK
kinases (468) (Homo sapiens, UniProt Q9Y2H9), sequence (Q9Y2H9 whole entry): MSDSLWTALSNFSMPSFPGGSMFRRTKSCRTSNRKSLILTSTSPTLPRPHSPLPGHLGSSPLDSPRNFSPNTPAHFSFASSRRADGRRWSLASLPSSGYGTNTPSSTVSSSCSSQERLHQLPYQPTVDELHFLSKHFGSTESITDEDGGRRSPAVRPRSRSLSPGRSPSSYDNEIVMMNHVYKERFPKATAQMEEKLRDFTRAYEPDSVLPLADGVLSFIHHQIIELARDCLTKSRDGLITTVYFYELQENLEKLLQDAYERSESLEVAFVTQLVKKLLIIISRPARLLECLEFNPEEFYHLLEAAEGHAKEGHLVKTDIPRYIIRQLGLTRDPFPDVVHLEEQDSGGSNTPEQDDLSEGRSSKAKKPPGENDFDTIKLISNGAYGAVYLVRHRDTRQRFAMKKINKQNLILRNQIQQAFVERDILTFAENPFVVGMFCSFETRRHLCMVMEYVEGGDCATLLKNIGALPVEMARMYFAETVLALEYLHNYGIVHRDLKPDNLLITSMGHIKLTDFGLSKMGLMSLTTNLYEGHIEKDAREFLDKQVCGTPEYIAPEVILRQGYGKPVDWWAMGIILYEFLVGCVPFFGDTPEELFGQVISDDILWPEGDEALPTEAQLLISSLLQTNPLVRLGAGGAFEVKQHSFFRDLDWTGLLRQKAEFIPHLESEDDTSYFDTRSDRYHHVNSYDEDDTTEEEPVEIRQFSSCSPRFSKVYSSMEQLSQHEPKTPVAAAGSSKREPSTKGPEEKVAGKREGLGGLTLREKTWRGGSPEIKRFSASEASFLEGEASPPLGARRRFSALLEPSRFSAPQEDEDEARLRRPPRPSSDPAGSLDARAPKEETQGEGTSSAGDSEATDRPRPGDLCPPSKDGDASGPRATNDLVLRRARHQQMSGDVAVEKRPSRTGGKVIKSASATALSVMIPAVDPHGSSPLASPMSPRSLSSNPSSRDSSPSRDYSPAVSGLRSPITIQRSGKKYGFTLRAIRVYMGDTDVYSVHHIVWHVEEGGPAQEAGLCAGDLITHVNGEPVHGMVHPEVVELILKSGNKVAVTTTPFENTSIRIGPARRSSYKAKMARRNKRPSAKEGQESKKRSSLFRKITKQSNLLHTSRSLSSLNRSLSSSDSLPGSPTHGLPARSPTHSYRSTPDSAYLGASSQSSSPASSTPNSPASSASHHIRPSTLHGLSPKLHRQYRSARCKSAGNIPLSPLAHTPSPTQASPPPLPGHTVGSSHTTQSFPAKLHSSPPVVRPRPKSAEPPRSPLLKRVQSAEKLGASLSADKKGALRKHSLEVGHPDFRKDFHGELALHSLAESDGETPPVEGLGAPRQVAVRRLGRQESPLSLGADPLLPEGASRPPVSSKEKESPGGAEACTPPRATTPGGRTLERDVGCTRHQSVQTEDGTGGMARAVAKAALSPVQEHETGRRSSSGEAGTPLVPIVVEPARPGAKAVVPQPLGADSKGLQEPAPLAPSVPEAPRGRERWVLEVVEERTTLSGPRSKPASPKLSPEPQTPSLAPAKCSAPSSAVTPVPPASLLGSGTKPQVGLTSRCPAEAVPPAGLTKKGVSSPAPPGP
kinases (468) (Homo sapiens, UniProt Q6XUX3), sequence (Q6XUX3 whole entry): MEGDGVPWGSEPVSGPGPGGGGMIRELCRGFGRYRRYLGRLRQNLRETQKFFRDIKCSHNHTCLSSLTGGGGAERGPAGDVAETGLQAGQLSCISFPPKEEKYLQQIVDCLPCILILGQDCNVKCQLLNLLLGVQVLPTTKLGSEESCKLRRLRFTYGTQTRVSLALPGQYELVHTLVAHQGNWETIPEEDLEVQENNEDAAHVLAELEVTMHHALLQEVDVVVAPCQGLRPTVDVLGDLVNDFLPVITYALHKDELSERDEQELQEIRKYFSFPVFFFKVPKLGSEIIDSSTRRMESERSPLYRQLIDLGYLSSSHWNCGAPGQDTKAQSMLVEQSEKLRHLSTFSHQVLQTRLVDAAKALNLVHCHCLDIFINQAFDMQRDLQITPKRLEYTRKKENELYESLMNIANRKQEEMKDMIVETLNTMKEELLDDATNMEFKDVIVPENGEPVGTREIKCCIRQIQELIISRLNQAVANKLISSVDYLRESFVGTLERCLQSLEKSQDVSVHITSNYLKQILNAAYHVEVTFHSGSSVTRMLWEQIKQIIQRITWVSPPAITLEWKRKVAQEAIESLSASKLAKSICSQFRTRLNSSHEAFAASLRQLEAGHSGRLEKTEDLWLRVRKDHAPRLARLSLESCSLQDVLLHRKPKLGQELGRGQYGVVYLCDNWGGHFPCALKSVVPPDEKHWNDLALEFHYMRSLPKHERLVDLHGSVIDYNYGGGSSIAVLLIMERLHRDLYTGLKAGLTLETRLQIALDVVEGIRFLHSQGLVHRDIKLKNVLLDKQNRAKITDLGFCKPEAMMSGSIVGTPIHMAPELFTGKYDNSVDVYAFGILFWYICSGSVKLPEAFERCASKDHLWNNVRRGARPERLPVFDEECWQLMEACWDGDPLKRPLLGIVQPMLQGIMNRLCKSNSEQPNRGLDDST

Structure (SMILES): C[C@H]1C[C@@H](O)CN(c2ncc(Cl)c(Nc3ccc4c(c3)c3c(c(=O)n4C)OCC(F)(F)[C@H](C4CC4)N3)n2)C1 [CCT373566_9A]
- Percent Control (kinases (468) [1]): 91%
- Percent Control (kinases (468) [2]): 100%
- Percent Control (kinases (468) [3]): 100%
- Percent Control (kinases (468) [4]): 81%
- Percent Control (kinases (468) [5]; ABL1(F317I)-nonphosphorylated): 95%
- Percent Control (kinases (468) [5]; ABL1(F317I)-phosphorylated): 90%
- Percent Control (kinases (468) [6]): 100%
- Percent Control (kinases (468) [7]): 100%
- Percent Control (kinases (468) [8]): 93%
- Percent Control (kinases (468) [9]): 100%
- Percent Control (kinases (468) [10]): 93%
- Percent Control (kinases (468) [11]): 85%
- Percent Control (kinases (468) [12]): 96%
- Percent Control (kinases (468) [13]): 100%
- Percent Control (kinases (468) [14]): 94%
- Percent Control (kinases (468) [15]): 100%
- Percent Control (kinases (468) [16]): 100%
- Percent Control (kinases (468) [17]): 98%
- Percent Control (kinases (468) [18]): 100%
- Percent Control (kinases (468) [19]): 100%
- Percent Control (kinases (468) [20]): 93%
- Percent Control (kinases (468) [21]): 98%
- Percent Control (kinases (468) [22]): 90%
- Percent Control (kinases (468) [23]): 100%
- Percent Control (kinases (468) [24]): 96%
- Percent Control (kinases (468) [25]): 80%
- Percent Control (kinases (468) [26]): 96%
- Percent Control (kinases (468) [27]): 100%
- Percent Control (kinases (468) [28]): 96%
- Percent Control (kinases (468) [29]): 100%
- Percent Control (kinases (468) [30]): 100%
- Percent Control (kinases (468) [31]): 99%
- Percent Control (kinases (468) [32]): 98%
- Percent Control (kinases (468) [33]): 100%
- Percent Control (kinases (468) [34]): 100%
